Series [1] relates to COX-2. Description: Western blot of COX-2 protein in TNF-α/IFN-γ-treated HSEIC. The note with it: for COX-2 protein levels relative to GAPDH: cotreatment experiments (Figures 7-15), single and combined doses given with the value. Type of series: cell-based, human. In general terms: In western blotting, separated proteins are transferred to a membrane and probed.
The test system of series [2] is IL-6. In kind it is cell-based, human. The note with it: cotreatment experiments (Figures 7-15), single and combined doses given with the value; vs TNF-α/IFN-γ group.
In series [3] the test system is human small intestinal epithelial cells (HSEIC). The note with it: for cell viability (MTT absorbance at 595 nm): vs vehicle control, doses given with the value; for Long-Term Cytotoxicity / Short-Term Cytotoxicity: MTT in HSEIC, N/A = no cytotoxicity seen; for Long-Term Cytotoxicity: doses cytotoxic after long exposure; for Short-Term Cytotoxicity: doses cytotoxic after short exposure; for cytotoxic effects overall (MTT): over all doses and time points tested (24-96 h), or time not stated.

Series [4] has as its system porcine intestinal epithelial cells. Further details: method as in PMID 32735667. The note with it: pretreatment with 100 μM; cited from earlier work.
The subject of series [5] is dextran sulfate sodium-induced colitis. More on the design: method as in PMID 34478286. The note with it: 20 mg/kg, consumed orally for 17 days; cited from earlier work.
Setting [6] is: single ligands (Figure 6), vs TNF-α/IFN-γ group, doses given with the value.

Several values for one entry are separate records, joined by “and”; a condition that tells them apart may be missing. Identical values can stand only once. Entries after “also recorded” stand apart in the source; their conditions may differ. Like-named read-outs stand apart in the source and are kept apart here.

As for `CC(=O)Oc1cccc2[nH]cc(CCN(C)C)c12` [4-AcO-DMT, 4-Acetoxy-N,N-dimethyltryptamine], the “Fold Change of COX-2” value in series [1] was −1.5 ×. For the same compound, the “Most Effective Dose” value in series [1] was determined as 20 µM. The “COX-2 protein levels relative to GAPDH” value in series [1] (vs TNF-α/IFN-γ group) is “only the combination of 20 μM of 4-AcO-DMT with 0.5 μM of Cap and 40 μM of 4-AcO-DMT significantly reduced the COX-2 levels; also recorded: significantly reduced in the 10 μM of 4-AcO-DMT, 25 μM of Eug, 20 μM of 4-AcO-DMT combined with 25 μM of Eug, 40 μM of 4-AcO-DMT, and 40 μM of 4-AcO-DMT combined with 25 μM of Eug groups”. The “normalized COX-2 levels (COX-2/GAPDH)” value in series [1] (setting [6]) was “significant decrease in the relative COX-2 levels at the concentrations of 10 (p < 0.01), 20 (p < 0.0001), and 40 μM and 5 μM significantly increased relative COX-2 levels”. The “IL-6 protein levels relative to GAPDH” value in series [2] is “significantly reduced only in the 20 μM of 4-AcO-DMT combined with 25 μM of Eug, 40 μM of 4-AcO-DMT, and 40 μM of 4-AcO-DMT combined with 25 μM of Eug groups; also recorded: IL-6 was upregulated in the 10 μM of 4-AcO-DMT, 25 μM of Eug, 10 μM of 4-AcO-DMT combined with 25 μM of Eug, and 20 μM of 4-AcO-DMT group”. Also, the “cell viability (MTT absorbance at 595 nm)” value (“cell viability” below) was “doses of 10, 20, 40, 80, and 160 μM significantly increased the cell viability” in series [3] (24 h exposure); “doses of 10, 20, 40, 80, and 160 μM significantly increased the cell viability” in series [3] (48 h exposure); 5 (p < 0.01), 10 (p < 0.0001), 20 (p < 0.01), 40, 80, and 100 μM (p < 0.0001) significantly increased the cell viability in series [3] (72 h exposure); “all doses significantly increased (p < 0.0001) the cell viability” in series [3] (96 h exposure).

In the case of `COc1cc(CNC(=O)CCCC/C=C/C(C)C)ccc1O` [Cap, capsaicin], in series [1], the “Fold Change of COX-2” value is recorded as −1.6 × and the “Most Effective Dose” value turned out to be 0.5 µM. The “COX-2 protein levels relative to GAPDH” value in series [1] (vs TNF-α/IFN-γ group) is on record as “effectively reduced COX-2 levels”. Further, the “normalized COX-2 levels (COX-2/GAPDH)” value in series [1] (setting [6]) is “a reduction in COX-2 levels was observed only at a dose of 0.5 μM; also recorded: both 0.1 and 1 μM showed a trend towards decreased normalized COX-2/GAPDH levels”. The “cell viability” value in series [3] (24 h exposure) was 50 μM after 24 h (p < 0.05), 100 μM after 24 and 48 h (p < 0.05), and 200 μM after 24 h (p < 0.01) and 48 h (p < 0.0001) significantly decreased the cell viability. In series [3] (48 h exposure), the “cell viability” value is 50 μM after 24 h (p < 0.05), 100 μM after 24 and 48 h (p < 0.05), and 200 μM after 24 h (p < 0.01) and 48 h (p < 0.0001) significantly decreased the cell viability. Also, in series [3], the “Long-Term Cytotoxicity” value is at least 0.5 µM, the “Short-Term Cytotoxicity” value is at least 50 µM and the “cytotoxic effects overall (MTT)” value is reported as “did not demonstrate significant cytotoxicity in either the short- or long-term doses tested”.

As to `COc1cc(/C=C/C(=O)CC(=O)/C=C/c2ccc(O)c(OC)c2)ccc1O` [Cur, curcumin], in series [1], the “COX-2 levels decreased by” value is reported as 3.8 ×; the “Most Effective Dose” value stood at 0.5 µM; the “normalized COX-2 levels (COX-2/GAPDH)” value was “Psi (40 μM), Cur (0.5 μM), and Eug (50 μM) significantly reduced COX-2 levels without cytotoxic effects; also recorded: significantly reduced normalized COX-2 levels at concentrations of 0.5 (p < 0.0001), 2.5 (p < 0.01), 5, and 10 μM”. For the same compound, the “cell viability” value in series [3] (48 h exposure) is on record as “cytotoxic effects across all doses”. Besides, in series [3] (72 h exposure), the “cell viability” value is “cytotoxic effects across all doses”. Moreover, the “cell viability” value in series [3] (96 h exposure) was “cytotoxic effects across all doses”. Besides, in series [3], the “Long-Term Cytotoxicity” value was at least 1 µM; the “Short-Term Cytotoxicity” value is at least 5 µM; the “cytotoxic effects overall (MTT)” value was “most substantial and severe decreases in cell viability were observed at 20, 40, and 80 μM”. For the same compound, in series [3] (listed as Curcumin), the “Long-Term Cytotoxicity” value is at least 1 µM and the “Short-Term Cytotoxicity” value was at least 5 µM.

In the case of `C=CCc1ccc(O)c(OC)c1` [Eug, eugenol], the “COX-2 levels decreased by” value in series [1] amounted to 3.8 ×. In addition, the “Fold Change of COX-2” value in series [1] is listed as −3.8×. Besides, the “COX-2 protein levels relative to GAPDH” value in series [1] (vs TNF-α/IFN-γ group) was “significantly reduced in the 10 μM of 4-AcO-DMT, 25 μM of Eug, 20 μM of 4-AcO-DMT combined with 25 μM of Eug, 40 μM of 4-AcO-DMT, and 40 μM of 4-AcO-DMT combined with 25 μM of Eug groups”. Besides, the “Most Effective Dose” value in series [1] (dose most effective in lowering COX-2 (and IL-6) in TNF-α/IFN-γ-treated HSEIC) is 50 µM. Moreover, the “normalized COX-2 levels (COX-2/GAPDH)” value in series [1] (setting [6]) is “Psi (40 μM), Cur (0.5 μM), and Eug (50 μM) significantly reduced COX-2 levels without cytotoxic effects”; in series [1] (single ligands (Figure 6), vs TNF-α/IFN-γ group, doses given with the value, listed as eugenol) it was “remarkable efficacy in reducing the normalized COX-2 levels at all tested concentrations”. Also, the “IL-6 protein levels relative to GAPDH” value in series [2] was “IL-6 was upregulated in the 10 μM of 4-AcO-DMT, 25 μM of Eug, 10 μM of 4-AcO-DMT combined with 25 μM of Eug, and 20 μM of 4-AcO-DMT group”. The “cell viability” value is 10 (p < 0.01), 100 (p < 0.05), 200 (p < 0.01), 400 (p < 0.001), and 800 (p < 0.0001) μM of eugenol decreased the cell viability in series [3] (24 h exposure); “exposure to 50 (p < 0.001), 100 (p < 0.001), 200 (p < 0.0001), 400 (p < 0.0001), and 800 μM (p < 0.0001) for 48 h significantly reduced the cell viability” in series [3] (48 h exposure); “only 200 (p < 0.001), 400 (p < 0.0001), and 800 μM (p < 0.0001) of eugenol significantly reduced the cell viability” in series [3] (72 h exposure); “all doses reduced the cell viability” in series [3] (96 h exposure). Further, the “Long-Term Cytotoxicity” value in series [3] and in series [3] (listed as Eugenol) was at least 10 µM throughout. Further, the “Short-Term Cytotoxicity” value in series [3] and in series [3] (listed as Eugenol) was at least 10 µM each time. Also, in series [3], the “cytotoxic effects overall (MTT)” value is “demonstrated both short-term and long-term cytotoxic effects”. In addition, the “LPS-induced IL-8 and TNF-α transcript levels” value in series [4] is “significantly suppress the LPS-induced IL-8 and TNF-α transcript levels”. For the same compound, the pathological scores result in series [5] is reported as “reduced the pathological scores”.

`O=C(c1ccc(F)cc1)C1CCN(CCn2c(=O)[nH]c3ccccc3c2=O)CC1` [Ket, ketanserin]: in series [1], the “Most Effective Dose” value was determined as 1 µM. Moreover, the “normalized COX-2 levels (COX-2/GAPDH)” value in series [1] (setting [6]) was “Only 1 (p < 0.0001) and 10 μM (p < 0.01) of ketanserin significantly lowered COX-2 levels and 20 μM of ketanserin led to a significant increase in the normalized COX-2 levels and higher doses significantly increased COX-2 levels”.

Regarding `CN(C)CCc1c[nH]c2cccc(OP(=O)(O)O)c12` [Psi, psilocybin], the “Fold Change of COX-2” value in series [1] is on record as −3.8 ×. In series [1], the “Most Effective Dose” value was 40 µM. The “COX-2 protein levels relative to GAPDH” value in series [1] (vs TNF-α/IFN-γ group) is “effectively reduced COX-2 levels and 40 μM psilocybin all significantly decreased the COX-2 levels”. Besides, the “normalized COX-2 levels (COX-2/GAPDH)” value is “Psi (40 μM), Cur (0.5 μM), and Eug (50 μM) significantly reduced COX-2 levels without cytotoxic effects” in series [1] (setting [6]); “significant reductions in the normalized COX-2 levels across all concentrations tested (5, 10, 20, and 40 μM)” in series [1] (single ligands (Figure 6), vs TNF-α/IFN-γ group, doses given with the value, listed as Psilocybin). For the same compound, the “IL-6 protein levels relative to GAPDH” value in series [2] was 20 μM psilocybin and 10 μM psilocybin combined with 0.5 μM curcumin showing the most significant reductions and the 10 μM psilocybin treatment group, which significantly upregulated the IL-6 levels. Further, the “cell viability” value was “significantly increased the number of viable cells at doses of 20 (p < 0.001), 40, 80, and 160 μM” in series [3] (24 h exposure); “increased the cell viability at 20 (p < 0.01), 40 (p < 0.001), 80, and 160 μM” in series [3] (48 h exposure); 80 (p < 0.05) and 160 μM (p < 0.0001) of psilocybin for 96 h significantly increased the cell viability in series [3] (96 h exposure).

The values above are taken from paper PMC10453699 (Current Issues in Molecular Biology, 2023).
